Reference: patent publication EP0412158A1, “ONCOSTATIC DRUG” (priority 1987, dated 1988)

Columns and labels:
Format in all cases: in vivo, female BALB/C mice
methyl cholanthrene A [1] = test: Methyl cholanthrene A tumor, evaluation by elongation of period of survival (Examples 31, 34 and 35); settings: for Average number of days of survival ±SE / ILS / Number of mice of no tumor/total number of mice: 25 mg/kg, ip × 9; for Number of mice of no tumor/total number of mice: observed 60 days after transplantation; for Change in body weight after elapse of 10 days: mouse, in vivo
Protocol: The active compounds, M to 0, mentioned above were severally dissolved in distilled water to obtain aqueous solutions containing the compounds in a fixed concentration of 10 mg/ml. To be specific, to female BALB/C mice (five weeks old) to which methyl cholanthrene A had been transplanted in a ratio of 1.0 x 10^5 cells per mouse, […] for 9 consecutive days to determine the mice's periods of survival. For comparison, mice to which no aqueous solution was administered and mice to which aminonitrosourea was administered were similarly tested.

[2] = test system: methyl cholanthrene A tumor; test: Methyl cholanthrene A tumor, evaluation by size of tumor (Examples 31 to 33); set-up: Average weight of tumor ± SE / Range of average tumor weight after elapse of 21 days ± SE: unit not given here; settings: 25 mg/kg, ip × 9; for Average weight of tumor ± SE: after elapse of 14 days
Protocol: A heteropoly acid salt, Na5[IM06O24]•34H2O (Compound M), and other compounds (Compounds N and O ) were severally dissolved in distilled water to obtain aqueous solutions containing the salts in a fixed concentration of 10 mg/ml. To female BALB/C mice (five weeks old) to which methyl cholanthrene A tumor had been transplanted, the aqueous solutions were administered to test the compounds for antineoplastic activity. To be specific, the methyl cholanthrene A was transplanted to the mice at a ratio of 1.0 x 10^5 cells per mouse and the aqueous solutions were administered ([…]) for 9 consecutive days by intraperitoneal injection. On elapse of 14 and 21 days after the stop of the administration, the sizes of tumors in the mice were measured. For comparison, mice to which no aqueous solution was administered and mice to which aminonitrosourea was administered were similarly tested.

[3] = test system: methyl cholanthrene A tumor; test: Methyl cholanthrene A tumor, evaluation by weight of tumor (Examples 13 to 16); settings: for Average weight of tumor / Number of tumorless mice /total number of mice / T/control: 100 mg/kg; for Average weight of tumor / Number of tumorless mice /total number of mice: ip × 9; for T/control: ip×9, tumor weight
Protocol: Compound E, an alkali metal salt of polymolybdic acid (Example 13), and other compounds (Compounds F to H) mentioned above were severally dissolved in distilled water to obtain aqueous solutions containing the compounds in a fixed concentration of 10 mg/ml. These aqueous solutions were administered to female BALB/C mice (five weeks old) to which methyl cholanthrene A tumor had been transplanted to test the compounds for antineoplastic activity. To be morespecific, the methyl cholanthrene A was transplanted to the mice in a ratio of 1.0 x 10^5 cells per mouse and the aqueous solution was continuously administered (at a dose of 100 mg/kg of body weight) for nine days by intraperitoneal injection. On elapse of 14 days after the stop of the administration, the tumors in the mice were weighed. For comparison, mice to which the aqeuous solution was not administered and the mice to which aminonitrosourea was administered were similarly tested.

methyl cholanthrene A [4] = test: Methyl cholanthrene A tumor, evaluation by elongation of period of survival (Examples 17 to 20); settings: 100 mg/kg ×9
Protocol: The aforementioned active compounds, E to H, were severally dissolved in distilled water to obtain aqueous solutions containing the compounds in a fixed concentration of 10 mg/ml. To female BALB/C mice (five weeks old) to which methyl cholanthrene A had been transplanted in a ratio of 1.0 x 10^5 cells per mouse, the aqueous solutions were continuously administered at a dose of 100 mg/kg of body weight for nine days by intraperitoneal injection to determine the mices periods of survival. For comparison, mice to which no aqueous solution was administered and mice to which aminonitrosourea was administered were similarly tested.

| Compound | Average number of days of survival ±SE (methyl cholanthrene A [1]) | ILS (methyl cholanthrene A [1]) [%] | Number of mice of no tumor/total number of mice (methyl cholanthrene A [1]) | Change in body weight after elapse of 10 days (methyl cholanthrene A [1]) | Range of average tumor weight after elapse of 21 days ± SE [2] | Average weight of tumor ± SE [2] | T/C ([2]; tumor weight after 14 days) | T/C ([2]; tumor weight after 21 days) | Average weight of tumor [3] | Number of tumorless mice /total number of mice [3] | T/control [3] | toxicity ([3]; 100 mg/kg.ip for nine days, judged by increase of body weight, result in words) | Average number of days of survival (methyl cholanthrene A [4]) | Number of toxically killed mice/total number of mice (methyl cholanthrene A [4]) | Ratio of prolonging life (methyl cholanthrene A [4]) [%] |
| --- | --- | --- | --- | --- | --- | --- | --- | --- | --- | --- | --- | --- | --- | --- | --- |
| [NH4]3 H6 [CoMo6O24] • 7H20 [Compound N] | 39.30±3.73(10)*** * days | 57.0 | 2/10 | (+)0.56 | 693.6±144.3 (9) | 448.5±166.0 (10) | 0.600 | 0.301 | – | – | – | – | – | – | – |
| O.O.O.O.[K+].[K+].[K+].[K+].[K+].[K+].[O]=[Mo](=[O])([O-])[O][Mo](=[O])(=[O])[O][Mo](=[O])([O-])([O-])[O][Mo](=[O])(=[O])[O][Mo](=[O])([O-])([O-])[O][Mo](=[O])(=[O])[O][Mo](=[O])(=[O])[O-] [Compound E, K6 [Mo7O24] • 4H2O] | – | – | – | – | – | – | – | – | 1281.6±184.2(8) mg | 0/8 | 0.498 | very slight toxicity | 35.5±2.2(8) days | 0/8 | 57.8 |
| O.O.O.O.[Cs+].[Cs+].[Cs+].[Cs+].[Cs+].[Cs+].[O]=[Mo](=[O])([O-])[O][Mo](=[O])(=[O])[O][Mo](=[O])([O-])([O-])[O][Mo](=[O])(=[O])[O][Mo](=[O])([O-])([O-])[O][Mo](=[O])(=[O])[O][Mo](=[O])(=[O])[O-] [Compound H, Cs6 [Mo7O24] • 4H2O] | – | – | – | – | – | – | – | – | 1599.5±340.6(8) mg | 0/8 | 0.621 | – | 32.9±5.5(8) days | 0/8 | 46.2 |
| Na3H6 [CrMo6O24] • 8H20 [Compound O] | 35.10±3.16(10)*** * days | 41.0 | 0/10 | (+)1.22 | – | 585.6±166.8 (10) | 0.784 | 0.832 | – | – | – | – | – | – | – |
| O.O.O.O.[Na+].[Na+].[Na+].[Na+].[Na+].[Na+].[O]=[Mo](=[O])([O-])[O][Mo](=[O])(=[O])[O][Mo](=[O])([O-])([O-])[O][Mo](=[O])(=[O])[O][Mo](=[O])([O-])([O-])[O][Mo](=[O])(=[O])[O][Mo](=[O])(=[O])[O-] [Compound F, Na6 [Mo7O24] • 4H2O] | – | – | – | – | – | – | – | – | 1592.8±257.6(8) mg | 0/8 | 0.618 | – | 35.0±5.7(8) days | 0/8 | 55.6 |
| O.O.O.O.[Li+].[Li+].[Li+].[Li+].[Li+].[Li+].[O]=[Mo](=[O])([O-])[O][Mo](=[O])(=[O])[O][Mo](=[O])([O-])([O-])[O][Mo](=[O])(=[O])[O][Mo](=[O])([O-])([O-])[O][Mo](=[O])(=[O])[O][Mo](=[O])(=[O])[O-] [Compound G, Li6 [Mo7O24] • 4H2O] | – | – | – | – | – | – | – | – | 1760±254.6(8) mg | 0/8 | 0.683 | – | 31.6±5.4(8****) days | 0/8 | 40.4 |
